Holding throughout (format): cell-based
Test [1] deals with human α1H T-type channels (Homo sapiens, UniProt O95180). In words: T-type calcium channel block, whole cell patch clamp, α1H. The conditions noted are these: HEK cells stably expressing human α1H; mainly non-inactivated protocol; values above 10,000 nM represented as 10000. The essentials:
(§1)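 Read-out: current block in whole-cell patch clamp of HEK 293 cells stably expressing human α1G or α1H subunits. Compounds were perfused locally in external solution (0.1-0.01% DMSO) under resting and inactivating voltage protocols.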
In general terms: The patch-clamp technique gives a direct electrical read-out from membranes.

The target of test [2] is human α1G T-type channels (Homo sapiens, UniProt O43497). The experiment in a line: T-type calcium channel block, whole cell patch clamp, α1G. The conditions noted are these: HEK cells stably expressing human α1G; mainly non-inactivated protocol; values above 10,000 nM represented as 10000. The method, boiled down: as §1
Test [3] concerns the target N-type calcium channel subunits (α1B, α2δ, and β3a) (Homo sapiens, UniProt Q00975). The experiment in a line: Block of Cav2.2 channel, whole cell voltage clamp, manual and PatchXpress. The conditions noted are these: Table 5; table follows Assay Example 3 (whole cell voltage clamp / PatchXpress); assay not given. The method, boiled down:
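Percent block taken as current amplitude ratio with versus without compound, applied in rising doses; IC50 fitted where one cell received multiple doses. Protocol: 50 ms pulses to +20 mV at 0.067 Hz from […] or −90 mV holding; P/n leak subtraction, no junction-potential correction; manual and PatchXpress recordings.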

human α1H T-type channels, sequence (O95180 whole entry, the tested form may be a part): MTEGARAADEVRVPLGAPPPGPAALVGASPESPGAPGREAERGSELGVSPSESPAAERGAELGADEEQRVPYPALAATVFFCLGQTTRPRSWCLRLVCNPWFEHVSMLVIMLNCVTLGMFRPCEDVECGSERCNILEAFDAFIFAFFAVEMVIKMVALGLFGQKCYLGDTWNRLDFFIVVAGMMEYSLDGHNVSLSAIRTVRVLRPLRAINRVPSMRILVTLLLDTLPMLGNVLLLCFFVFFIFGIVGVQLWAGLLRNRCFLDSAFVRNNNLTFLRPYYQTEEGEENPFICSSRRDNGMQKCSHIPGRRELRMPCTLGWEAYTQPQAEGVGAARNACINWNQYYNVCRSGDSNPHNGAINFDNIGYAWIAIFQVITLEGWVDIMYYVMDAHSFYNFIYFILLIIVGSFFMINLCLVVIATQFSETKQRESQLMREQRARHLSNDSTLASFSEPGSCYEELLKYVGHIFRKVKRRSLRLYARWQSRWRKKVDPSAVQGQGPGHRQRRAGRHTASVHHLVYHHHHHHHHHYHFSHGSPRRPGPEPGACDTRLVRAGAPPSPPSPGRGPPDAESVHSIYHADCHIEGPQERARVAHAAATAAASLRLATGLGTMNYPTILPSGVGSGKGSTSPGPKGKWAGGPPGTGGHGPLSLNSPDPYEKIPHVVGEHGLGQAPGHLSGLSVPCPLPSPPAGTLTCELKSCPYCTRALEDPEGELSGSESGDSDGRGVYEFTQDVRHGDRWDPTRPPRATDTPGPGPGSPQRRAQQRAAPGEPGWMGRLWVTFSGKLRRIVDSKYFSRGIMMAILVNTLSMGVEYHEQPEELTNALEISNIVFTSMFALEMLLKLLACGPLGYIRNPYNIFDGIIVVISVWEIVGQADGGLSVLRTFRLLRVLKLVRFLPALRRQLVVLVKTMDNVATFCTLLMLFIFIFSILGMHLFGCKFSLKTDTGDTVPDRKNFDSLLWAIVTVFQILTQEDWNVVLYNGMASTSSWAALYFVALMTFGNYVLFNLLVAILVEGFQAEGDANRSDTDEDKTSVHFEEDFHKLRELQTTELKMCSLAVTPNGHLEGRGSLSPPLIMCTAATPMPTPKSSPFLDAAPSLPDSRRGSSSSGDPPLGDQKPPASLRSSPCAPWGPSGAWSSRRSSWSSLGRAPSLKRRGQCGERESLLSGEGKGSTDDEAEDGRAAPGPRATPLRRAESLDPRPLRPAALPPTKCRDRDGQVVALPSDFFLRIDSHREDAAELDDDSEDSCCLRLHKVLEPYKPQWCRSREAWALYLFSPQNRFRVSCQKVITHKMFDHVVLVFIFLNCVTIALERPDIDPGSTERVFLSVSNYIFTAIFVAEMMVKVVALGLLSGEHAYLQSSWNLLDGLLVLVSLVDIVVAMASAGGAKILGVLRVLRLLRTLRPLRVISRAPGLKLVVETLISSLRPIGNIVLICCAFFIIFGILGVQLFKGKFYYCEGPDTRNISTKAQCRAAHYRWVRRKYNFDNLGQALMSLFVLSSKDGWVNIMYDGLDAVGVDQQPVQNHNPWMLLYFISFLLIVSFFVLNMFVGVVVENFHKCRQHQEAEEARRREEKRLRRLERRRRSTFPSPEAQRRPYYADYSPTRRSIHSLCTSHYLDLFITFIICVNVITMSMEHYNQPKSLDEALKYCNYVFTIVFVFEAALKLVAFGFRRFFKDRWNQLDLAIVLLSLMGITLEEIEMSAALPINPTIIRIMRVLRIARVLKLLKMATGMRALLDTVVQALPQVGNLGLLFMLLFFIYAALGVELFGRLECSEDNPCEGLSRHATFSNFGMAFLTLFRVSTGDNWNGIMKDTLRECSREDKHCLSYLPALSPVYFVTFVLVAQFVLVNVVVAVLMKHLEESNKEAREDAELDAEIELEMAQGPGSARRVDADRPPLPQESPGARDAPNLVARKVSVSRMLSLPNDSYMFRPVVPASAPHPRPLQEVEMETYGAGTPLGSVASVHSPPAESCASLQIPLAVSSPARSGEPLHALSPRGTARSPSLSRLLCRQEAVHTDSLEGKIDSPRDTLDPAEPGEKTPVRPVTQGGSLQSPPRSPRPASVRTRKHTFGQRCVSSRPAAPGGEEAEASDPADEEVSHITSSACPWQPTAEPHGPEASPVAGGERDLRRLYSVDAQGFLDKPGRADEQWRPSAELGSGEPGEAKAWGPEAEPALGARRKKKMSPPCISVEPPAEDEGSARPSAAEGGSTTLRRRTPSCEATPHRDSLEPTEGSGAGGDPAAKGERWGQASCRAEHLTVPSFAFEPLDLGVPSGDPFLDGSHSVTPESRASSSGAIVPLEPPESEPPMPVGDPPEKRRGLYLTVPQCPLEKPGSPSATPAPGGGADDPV
human α1G T-type channels, sequence (O43497 whole entry): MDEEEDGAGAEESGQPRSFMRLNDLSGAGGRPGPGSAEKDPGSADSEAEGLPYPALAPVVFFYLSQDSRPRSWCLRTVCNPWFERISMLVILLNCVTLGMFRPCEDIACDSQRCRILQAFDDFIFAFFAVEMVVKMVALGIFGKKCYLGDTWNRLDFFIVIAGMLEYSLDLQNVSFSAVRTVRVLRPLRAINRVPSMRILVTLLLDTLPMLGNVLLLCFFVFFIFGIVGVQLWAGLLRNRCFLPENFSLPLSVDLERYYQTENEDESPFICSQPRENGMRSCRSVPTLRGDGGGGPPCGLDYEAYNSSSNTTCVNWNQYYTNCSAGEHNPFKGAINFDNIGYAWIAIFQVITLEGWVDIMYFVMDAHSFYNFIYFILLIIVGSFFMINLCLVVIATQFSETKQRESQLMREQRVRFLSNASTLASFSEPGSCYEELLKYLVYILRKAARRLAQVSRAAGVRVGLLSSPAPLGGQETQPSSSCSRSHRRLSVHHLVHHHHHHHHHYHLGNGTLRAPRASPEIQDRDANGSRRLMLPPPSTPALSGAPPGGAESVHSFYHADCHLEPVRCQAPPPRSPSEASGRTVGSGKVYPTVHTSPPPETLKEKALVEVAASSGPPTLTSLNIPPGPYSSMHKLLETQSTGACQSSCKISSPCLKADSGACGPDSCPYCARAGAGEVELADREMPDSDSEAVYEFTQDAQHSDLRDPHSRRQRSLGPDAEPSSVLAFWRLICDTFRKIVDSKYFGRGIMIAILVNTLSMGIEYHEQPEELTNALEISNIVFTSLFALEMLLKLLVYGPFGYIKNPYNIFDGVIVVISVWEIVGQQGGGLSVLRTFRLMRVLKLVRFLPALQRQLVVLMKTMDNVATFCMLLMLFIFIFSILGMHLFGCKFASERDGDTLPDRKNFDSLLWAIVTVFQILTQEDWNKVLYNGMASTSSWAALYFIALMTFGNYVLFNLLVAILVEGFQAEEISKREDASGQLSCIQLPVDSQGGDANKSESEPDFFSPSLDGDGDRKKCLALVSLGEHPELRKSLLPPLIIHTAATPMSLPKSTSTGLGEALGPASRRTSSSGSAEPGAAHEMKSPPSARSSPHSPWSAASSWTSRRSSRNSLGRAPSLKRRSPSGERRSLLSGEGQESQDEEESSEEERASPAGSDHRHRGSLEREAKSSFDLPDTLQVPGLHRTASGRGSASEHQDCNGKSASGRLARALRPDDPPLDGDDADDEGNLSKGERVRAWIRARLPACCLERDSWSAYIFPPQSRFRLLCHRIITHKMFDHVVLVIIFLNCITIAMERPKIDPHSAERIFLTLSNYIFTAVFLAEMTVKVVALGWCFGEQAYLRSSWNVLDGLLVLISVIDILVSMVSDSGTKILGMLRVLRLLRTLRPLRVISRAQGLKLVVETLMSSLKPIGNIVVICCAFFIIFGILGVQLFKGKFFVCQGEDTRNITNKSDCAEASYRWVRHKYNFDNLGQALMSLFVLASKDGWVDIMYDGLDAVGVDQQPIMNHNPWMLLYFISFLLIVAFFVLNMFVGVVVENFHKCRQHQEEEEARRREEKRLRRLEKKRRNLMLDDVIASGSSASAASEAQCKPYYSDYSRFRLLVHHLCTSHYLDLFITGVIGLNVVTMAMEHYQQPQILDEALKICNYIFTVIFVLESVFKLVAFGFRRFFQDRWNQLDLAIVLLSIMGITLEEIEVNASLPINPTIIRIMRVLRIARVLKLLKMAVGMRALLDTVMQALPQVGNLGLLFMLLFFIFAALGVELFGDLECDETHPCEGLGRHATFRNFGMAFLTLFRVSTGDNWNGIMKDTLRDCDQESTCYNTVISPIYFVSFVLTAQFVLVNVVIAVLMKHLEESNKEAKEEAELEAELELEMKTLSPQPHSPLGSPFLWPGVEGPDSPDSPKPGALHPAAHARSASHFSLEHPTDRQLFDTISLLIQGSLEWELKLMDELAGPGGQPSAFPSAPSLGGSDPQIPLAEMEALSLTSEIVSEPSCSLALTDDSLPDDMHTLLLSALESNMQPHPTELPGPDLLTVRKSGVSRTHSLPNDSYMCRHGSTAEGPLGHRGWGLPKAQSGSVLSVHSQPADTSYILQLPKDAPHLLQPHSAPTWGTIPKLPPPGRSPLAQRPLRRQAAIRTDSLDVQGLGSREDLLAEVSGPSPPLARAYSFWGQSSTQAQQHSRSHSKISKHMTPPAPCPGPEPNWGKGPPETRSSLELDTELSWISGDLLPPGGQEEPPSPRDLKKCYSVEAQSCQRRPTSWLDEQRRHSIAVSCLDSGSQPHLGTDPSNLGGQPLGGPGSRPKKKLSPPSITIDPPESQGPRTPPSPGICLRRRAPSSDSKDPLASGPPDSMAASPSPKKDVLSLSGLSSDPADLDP

As usually defined, the IC50 is the midpoint of a concentration-inhibition curve. As to `O=C(N[C@H]1CC[C@@](F)(S(=O)(=O)c2cccc(C(F)(F)F)c2)CC1)C1CCC(F)(F)CC1` [Compound 305, 4,4-difluoro-N-((1S,4S)-4-fluoro-4-(3-(trifluoromethyl)phenylsulfonyl)cyclohexyl) cyclohexanecarboxamide], the IC50 in test [1] is above 10000 nM; in test [2], above 10000 nM; in test [3] it was 300 nM.
Take `CC(C)(N)CN(C(=O)C(F)(F)F)[C@H]1CC[C@@](F)(S(=O)(=O)c2cccc(C(F)(F)F)c2)CC1` [Compound 306, N-(2-amino-2-methylpropyl)-2,2,2-trifluoro-N-((1S,4S)-4-tluoro-4-(3-(trifIuoromethyl)phenylsulfonyl)cyclohexyl) acetamide]: the IC50 in test [1] stood at 7350 nM; in test [2] it was 4960 nM; in test [3], 530 nM.
For `Cn1nc(C(F)(F)F)cc1C(=O)NC1(C)CCC(S(=O)(=O)c2cccc(C(F)(F)F)c2)CC1` (stereo not drawn) [Compound 307, 1-methyl-N-(1-methyl-4-(3-(trifluoromethyl)phenylsulfonyl)cyclohexyl)-3-(tritluoromethyl)-1H-pyrazole-5-carboxamide], in that order: 1540 nM, 2410 nM and 3120 nM.
For `CC1(NC(=O)c2cc(C(F)(F)F)ccn2)CCC(S(=O)(=O)c2cccc(C(F)(F)F)c2)CC1` (stereo not drawn) [Compound 308, N-(1-methyl-4-(3-(trifluoromethyl)phenylsulfonyl)cyclohexyl)-4-(trifluoromethyl)picolinamide], in that order: 2270 nM, 4200 nM and 1450 nM.
As for `CC1(NC(=O)c2ccc(F)c(C(F)(F)F)c2)CCC(S(=O)(=O)c2cccc(C(F)(F)F)c2)CC1` (stereo not drawn) [Compound 309, 4-fluoro-N-(1-methyl-4-(3-(trifluoromethyl)phenylsulfonyl)cyclohexyl)-3-(trifluoromethyl)benzamide], the IC50 is above 10000 nM in test [1], 9900 nM in test [2] and 1390 nM in test [3].
The like results for `CC1(NC(=O)c2ccc(F)c(Cl)c2)CCC(S(=O)(=O)c2cccc(C(F)(F)F)c2)CC1` (stereo not drawn) [Compound 310, 3-chloro-4-fluoro-N-(1-methyl-4-(3-(trifluoromethyl)phenylsulfonyl)cyclohexyl) benzamide] were, in that order, 5710 nM, 6340 nM and 1160 nM.
The like results for `CC1(NC(=O)c2ccc(C(F)(F)F)cc2S(C)(=O)=O)CCC(S(=O)(=O)c2cccc(C(F)(F)F)c2)CC1` (stereo not drawn) [Compound 311, N-(1-methyl-4-(3-(trifluoromethyl)phenylsulfonyl)cyclohexyl)-2-(methylsulfonyl)-4-(trifluoromethyl)benzamide] were, in that order, 8500 nM, 5080 nM and 650 nM.
The like results for `CC1(NC(=O)c2ccc(C(F)(F)F)cn2)CCC(S(=O)(=O)c2cccc(C(F)(F)F)c2)CC1` (stereo not drawn) [Compound 312, N-(1-methyl-4-(3-(trifluoromethyl)phenylsulfonyl)cyclohexyl)-5-(trifluoromethyl)picolinamide] were, in that order, 1940 nM, 2960 nM and 1020 nM.
On to `COc1cc(C(=O)NC2(C)CCC(S(=O)(=O)c3cccc(C(F)(F)F)c3)CC2)cc(Cl)n1` (stereo not drawn) [Compound 313, 2-chloro-6-methoxy-N-(1-methyl-4-(3-(trifluoromethyl)phenylsulfonyl)cyclohexyl) isonicotinamide], for which the values for the concentration for half-maximal inhibition (IC50) in test [1], in test [2] and in test [3] were above 10000 nM, above 10000 nM and 1980 nM, respectively.
For `CC1(NC(=O)c2ccc(C(F)(F)F)nc2S(C)(=O)=O)CCC(S(=O)(=O)c2cccc(C(F)(F)F)c2)CC1` (stereo not drawn) [Compound 316, N-(1-methyl-4-(3-(trifluoromethyl)phenylsulfonyl)cyclohexyl)-2-(methylsulfonyl)-6-(trifluoromethyl)nicotinamide], the IC50 amounted to 2910 nM in test [1], 3990 nM in test [2] and 3120 nM in test [3].
Consider `CC1(NC(=O)c2ncc(C(F)(F)F)cc2S(C)(=O)=O)CCC(S(=O)(=O)c2cccc(C(F)(F)F)c2)CC1` (stereo not drawn) [Compound 317, N-(1-methyl-4-(3-(trifluoromethyl)phenylsulfonyl)cyclohexyl)-3-(methylsulfonyl)-5-(trifluoromethyl)picolinamide], for which the IC50 in test [1] is 860 nM; in test [2], 1140 nM; in test [3], 2690 nM.
The like results for `O=C(N[C@H]1CC[C@@H](S(=O)(=O)c2cc(F)cc(C(F)(F)F)c2)CC1)c1ccc(F)c(C(F)(F)F)c1` [Compound 319, 4-fluoro-N-((1S,4S)-4-(3-fluoro-5-(trifluoromethyl)phenylsulfonyl)cyclohexyl)-3-(trifluoromethyl)benzamide] were, in that order, 3430 nM, 4820 nM and 260 nM.
For the compound `O=C(N[C@H]1CC[C@@H](S(=O)(=O)c2cc(F)cc(C(F)(F)F)c2)CC1)c1ccc(F)c(Cl)c1` [Compound 320, 3-chloro-4-fluoro-N-((1S,4S)-4-(3-fluoro-5-(trifluoromethyl)phenylsulfonyl)cyclohexyl) benzamide], the IC50 stood at 190 nM in test [1], 290 nM in test [2] and 600 nM in test [3].
The like results for `O=C(N[C@H]1CC[C@@H](S(=O)(=O)c2cc(F)cc(C(F)(F)F)c2)CC1)c1ccc(Cl)c(OC(F)(F)F)c1` [Compound 322, 4-chloro-N-((1S,4S)-4-(3-fluoro-5-(trifluoromethyl)phenylsulfonyl)cyclohexyl)-3-(trifluoromethoxy)benzamide] were, in that order, 630 nM, 3260 nM and 500 nM.
For `O=C(N[C@H]1CC[C@@H](S(=O)(=O)c2cc(F)cc(C(F)(F)F)c2)CC1)c1ccnn1CC(F)(F)F` [Compound 323, N-((1S,4S)-4-(3-fluoro-5-(trifluoromethyl)phenylsulfonyl)cyclohexyl)-1-(2,2,2-trifluoroethyl)-1Hpyrazole-5-carboxamide], in that order: 720 nM, 1350 nM and 2410 nM.
`O=C(N[C@H]1CC[C@@](F)(S(=O)(=O)c2cc(F)cc(C(F)(F)F)c2)CC1)c1cc(C(F)(F)F)n[nH]1` [Compound 324, N-((1S,4S)-4-fluoro-4-(3-fluoro-5-(trifluoromethyl)phenylsulfonyl)cyclohexyl)-3-(trifluoromethyl)-1H-pyrazole-5-carboxamide]: the values for the concentration for half-maximal inhibition (IC50) in test [1], in test [2] and in test [3] were 1220 nM, 3180 nM and 1060 nM, respectively.
`O=C(N[C@H]1CC[C@@](F)(S(=O)(=O)c2cc(F)cc(C(F)(F)F)c2)CC1)c1ccc(F)c(C(F)(F)F)c1` [Compound 325, 4-fluoro-N-((1S,4S)-4-fluoro-4-(3-fluoro-5-(trifluoromethyl)phenylsulfonyl)cyclohexyl)-3-(trifluoromethyl)benzamide]: the half-maximal inhibitory concentration (IC50) in test [1] came to 1330 nM; in test [2], 2400 nM; in test [3], 320 nM.
For `Cn1nc(C(F)(F)F)cc1C(=O)N[C@H]1CC[C@@](F)(S(=O)(=O)c2cc(F)cc(C(F)(F)F)c2)CC1` [Compound 327, N-((1S,4S)-4-fluoro-4-(3-fluoro-5-(trifluoromethyl)phenylsulfonyl)cyclohexyl)-1-methyl-3-(trifluoromethyl)-1Hpyrazole-5-carboxamide], in that order: 750 nM, 2790 nM and 630 nM.
For `O=C(N[C@H]1CC[C@@](F)(S(=O)(=O)c2cc(F)cc(C(F)(F)F)c2)CC1)c1cc(C(F)(F)F)ccn1` [Compound 328, N-((1S,4S)-4-fluoro-4-(3-fluoro-5-(trifluoromethyl)phenylsulfonyl)cyclohexyl)-4-(trifluoromethyl)picolinamide], in that order: 2470 nM, above 10000 nM and 710 nM.
For `O=C(N[C@H]1CC[C@@](F)(S(=O)(=O)c2cc(F)cc(C(F)(F)F)c2)CC1)c1ccc(F)c(Cl)c1` [Compound 329, 3-chloro-4-fluoro-N-((1S,4S)-4-fluoro-4-(3-fluoro-5-(trifluoromethyl)phenylsulfonyl)cyclohexyl) benzamide], in that order: above 10000 nM, above 10000 nM and 350 nM.
Consider `CS(=O)(=O)c1cc(C(F)(F)F)ccc1C(=O)N[C@H]1CC[C@@](F)(S(=O)(=O)c2cc(F)cc(C(F)(F)F)c2)CC1` [Compound 330, N-((1S,4S)-4-fluoro-4-(3-fluoro-5-(trifluoromethyl)phenylsulfonyl)cyclohexyl)-2-(methylsulfonyl)-4-(trifluoromethyl)benzamide], for which the results for the concentration for half-maximal inhibition (IC50) in test [1], in test [2] and in test [3] were 930 nM, 8560 nM and 1020 nM, respectively.
For `CS(=O)(=O)c1cc(C(F)(F)F)cnc1C(=O)N[C@H]1CC[C@@](F)(S(=O)(=O)c2cc(F)cc(C(F)(F)F)c2)CC1` [Compound 331, N-((1S,4S)-4-fluoro-4-(3-fluoro-5-(trifluoromethyl)phenylsulfonyl)cyclohexyl)-3-(methylsulfonyl)-5-(trifluoromethyl)picolinamide], in that order: 1510 nM, 2650 nM and 1290 nM.
